We go through one compound from patent publication US9283212B2, “Pharmaceutical preparation and delivery system” (PALMAYA PTY LTD, priority 2009, dated 2016).

Data set [1] has as its system patients with addiction, chronic anxiety or sleep disorders. Briefly: continuous subcutaneous infusion of flumazenil in patients (case study and observations). Type of data set: in vivo, human. The method, then:
A solution of flumazenil in saline solution was prepared by dissolving 16 mg of flumazenil in 30 mL of saline and adjusting the pH to between 6.5 to 7.0 with a phosphate buffer, solution (pH 5.0). The final concentration of flumazenil in saline is 0.53 mg/mL.
A solution of flumazenil in saline was prepared as set out above. That is, a portion of 12 to 16 mg flumazenil in 30 mL of saline was prepared for the subcutaneous administration via a spring driven 30 mL pump. The pump used was a portable infusion Springfusor pump (O'Neil Balloon Infuser, ID: SBI-100; Go Medical Industries). The delivery rate of the flumazenil was in the order of 40 to 1000 μg/h.
A Springfusor pump connected to tubing and a butterfly cannula was set up, wherein the pump was loaded with 30 mL of flumazenil solution (0.53 mg/mL). The butterfly cannula was inserted into the patient's abdomen using standard techniques and the pump set to delivery flumazenil at a rate of 166 μg/h. After the initial four day (96 hour) administration, the pump was reloaded with a further 30 mL of flumazenil solution (0.53 mgmL) and delivery continued for a further four days (96 hours). The subcutaneous infusion continued for a total of three weeks.

Data set [2] concerns patients with cravings for smoking. The conditions noted are these: patient controlled delivery, agent alone.
Text: In one experiment, flumazenil and naltrexone were mixed to capture the benefits of mixing a benzodiazepine antagonist and an opiate antagonist to be given in a pulsative manner when cravings were observed.
Data set [3] deals with patient suffering from chronic anxiety. Briefly: patient controlled subcutaneous pump, single dose, heart rate and anxiety. Type of data set: in vivo, human. The protocol:
The heart rate and the body movement of the patient were recorded using standard equipment.

The conditions of data set [4]: cited from earlier work.
For data set [5] the following is noted: cited from earlier work. The source holds these as a separate data set.
Data set [6] relates to patients with addiction, chronic anxiety or sleep disorders. Briefly: continuous subcutaneous infusion of flumazenil in patients (case study and observations). The conditions noted are these: intravenous infusions below 80 μg/h. Type of data set: in vivo, human.
Data set [7] has as its system subjects with panic disorder, social anxiety or alcohol dependence. The conditions noted are these: cited from earlier work.
The mark [8] stands for this setting: continuous subcutaneous infusion.

Entries after “also recorded” stand apart in the source; their conditions may differ.

For `CCOC(=O)c1ncn2c1CN(C)C(=O)c1cc(F)ccc1-2` [flumazenil], the panic attacks entry in data set [1] (after full treatment with subcutaneous infusion, one patient) is reported as “gone”. For the same compound, the anticonvulsant effect entry was “appears to be effective as an anticonvulsant” in data set [1] (constant subcutaneous delivery of 166 μg/h) and “failed to stop epileptic convulsions” in data set [6]. In data set [1] (continuous infusion with or without opiate and cannabanoid antagonists, chronic anxiety disorders), the sleeping pulse rates entry was “reductions in sleeping pulse rates”. Besides, in data set [1] (setting [8]), the “anxiety levels / anxiety disorders” value was “reduced; also recorded: marked improvements”. Also, the cognitive function result in data set [1] (setting [8]) is “improved cognitive functions; also recorded: appeared to improve daily”. Further, the “dependency on anti-psychotic drugs” value in data set [1] (continuous subcutaneous infusion 166 μg/h, one patient) is reported as “decreased”. In addition, the “sleep patterns / chronic sleep disorders” value in data set [1] (continuous subcutaneous infusion, 166 μg/h, greater than four days) is recorded as “better sleep patterns; also recorded: gradually improved; also recorded: good response rates”. Also, the “cravings for addictive substances (alcohol, smoking, amphetamines, opiates, benzodiazepines)” value in data set [1] (continuous subcutaneous infusion, during and after infusion) was “decreased and eventually were considered negligible; also recorded: reduced; also recorded: reduction in craving for alcohol”. Also, the “symptoms of craving and anxiety” value in data set [2] was “decrease symptoms of craving and anxiety”. The compound further showed a pulse rate in data set [3] (60 minutes after single 1 mg subcutaneous dose, from close to 120 bpm before) of 80 bpm. In addition, the anxiety result in data set [3] (single 1 mg dose via patient controlled subcutaneous pump) is “reduction in anxiety”. In addition, the “solubility in acidic aqueous solutions” value in data set [4] (acidic aqueous solutions) is “slightly soluble”. The solubility in water result in data set [4] (water) is recorded as “insoluble in water”. The half life result in data set [5] (in vivo) is listed as “very short half life”. Further, the oral bioavailability result in data set [5] (oral) is “low oral bioavailability”. For the same compound, the panic induction result in data set [7] (bolus infusion of 2 mg in 10 minutes, subjects with panic disorder) is “can act as a specific panicogen”. Also, in data set [7] (intravenous infusion), the “effect on social anxiety or alcohol-dependent subjects” value is “no effect”.
